Source: PubChem BioAssay AID1259411 (Chemical Carcinogenesis Research Information System (CCRIS), 2018)
The source made the active and inactive calls. How the calls were made is not given here.

Tested on: rodent carcinogenicity bioassays, tumor incidence
Assay: CCRIS carcinogenicity studies
In short: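 NCI-built, expert-reviewed records of carcinogenicity and related test outcomes (mutagenicity, tumor promotion/inhibition) compiled from published and report sources, historical span 1985-2011, not updated.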

O=C1CCc2ccccc2O1
carcinogen call (Species: MOUSE, Strain/Sex: B6C3F1/FEMALE, Route: GAVAGE, Dose: 0, 200, 400, 800 MG/KG IN CORN OIL 1/D 5 D/WK FOR 103 WK (STUDY DURATION: 103 WK), Dose: 0, 200, 400, 800 MG/KG IN CORN OIL 1/D 5 D/WK FOR 103 WK (STUDY DURATION: 103 WK), Tumor Site: Type of Lesion: LIVER: HEPATOCELLULAR ADENOMA, HEPATOCELLULAR ADENOMA OR CARCINOMA): active; positive | carcinogen call (Species: MOUSE, Strain/Sex: B6C3F1/MALE, Route: GAVAGE, Dose: 0, 200, 400, 800 MG/KG IN CORN OIL 1/D 5 D/WK FOR 103 WK (STUDY DURATION: 103 WK), Dose: 0, 200, 400, 800 MG/KG IN CORN OIL 1/D 5 D/WK FOR 103 WK (STUDY DURATION: 103 WK)): inactive; negative | carcinogen call (Species: RAT, Strain/Sex: F344/FEMALE, Route: GAVAGE, Dose: 0, 150, 300, 600 MG/KG IN CORN OIL 1/D 5 D/WK FOR 103 WK (STUDY DURATION: 103 WK), Dose: 0, 150, 300, 600 MG/KG IN CORN OIL 1/D 5 D/WK FOR 103 WK (STUDY DURATION: 103 WK)): inactive; negative | carcinogen call (Species: RAT, Strain/Sex: F344/MALE, Route: GAVAGE, Dose: 0, 150, 300, 600 MG/KG IN CORN OIL 1/D 5 D/WK FOR 103 WK (STUDY DURATION: 103 WK), Dose: 0, 150, 300, 600 MG/KG IN CORN OIL 1/D 5 D/WK FOR 103 WK (STUDY DURATION: 103 WK), Tumor Site: Type of Lesion: KIDNEY (RENAL TUBULE): ADENOMA): active; positive

C1O[C@@H]1[C@H]1CO1
carcinogen call (Species: MOUSE, Strain/Sex: B6C3F1/FEMALE, Route: INHALATION, Dose: 0, 2.5, 5.0 PPM 6 HR/D 5 D/WK FOR 6 WK (STUDY DURATION: 84 WK), Dose: 0, 2.5, 5.0 PPM 6 HR/D 5 D/WK FOR 6 WK (STUDY DURATION: 84 WK), Tumor Site: Type of Lesion: HARDERIAN GLAND: TUMOR): active; positive | carcinogen call (Species: RAT, Strain/Sex: SPRAGUE-DAWLEY/FEMALE, Route: INHALATION, Dose: 0, 2.5, 5.0 PPM 6 HR/D 5 D/WK FOR 6 WK (STUDY DURATION: 84 WK), Dose: 0, 2.5, 5.0 PPM 6 HR/D 5 D/WK FOR 6 WK (STUDY DURATION: 84 WK), Tumor Site: Type of Lesion: NASAL MUCOSA: TUMOR): active; positive

ClCCOCCCl
carcinogen call (Species: MOUSE, Strain/Sex: B6AKF1/MALE, Route: GAVAGE/ORAL, Dose: 100 MG/KG FROM DAY 7-28 OF LIFE THEN 300 MG/KG IN DIET, Tumor Site: Type of Lesion: LIVER: HEPATOMA): active; positive | carcinogen call (Species: MOUSE, Strain/Sex: B6C3F1/MALE,FEMALE, Route: GAVAGE/ORAL, Dose: 100 MG/KG FROM DAY 7-28 OF LIFE THEN 300 MG/KG IN DIET, Tumor Site: Type of Lesion: LIVER: HEPATOMA): active; positive | carcinogen call (Species: RAT, Strain/Sex: SPRAGUE-DAWLEY/MALE, Route: SUBCUTANEOUS, Dose: 0, 13.1, 4.36 UMOL IN DMSO 1/WK FOR 2 YR (STUDY DURATION: 2 YR), Dose: 0, 13.1, 4.36 UMOL IN DMSO 1/WK FOR 2 YR (STUDY DURATION: 2 YR)): inactive; negative | carcinogen call (Species: RAT, Strain/Sex: STRAIN-CD/MALE,FEMALE, Route: GAVAGE, Dose: 25, 50 MG/KG IN STEROID SUSPENDING VEHICLE 2/WK FOR 78 WK): inactive; negative

CNCCC(Oc1ccc(C(F)(F)F)cc1)c1ccccc1 (centres undefined)
carcinogen call (Species: MOUSE, Strain/Sex: B6C3F1/FEMALE, Route: ORAL, Dose: 0, 0.001, 0.004, 0.01% IN DIET FOR 24 MO (STUDY DURATION: 24 MO), Dose: 0, 0.001, 0.004, 0.01% IN DIET FOR 24 MO (STUDY DURATION: 24 MO)): inactive; negative | carcinogen call (Species: MOUSE, Strain/Sex: B6C3F1/MALE, Route: ORAL, Dose: 0, 0.001, 0.004, 0.01% IN DIET FOR 24 MO (STUDY DURATION: 24 MO), Dose: 0, 0.001, 0.004, 0.01% IN DIET FOR 24 MO (STUDY DURATION: 24 MO)): inactive; negative | carcinogen call (Species: RAT, Strain/Sex: F344/FEMALE, Route: ORAL, Dose: 0, 0.001, 0.0045, 0.02% IN DIET FOR 24 MO (STUDY DURATION: 24 MO), Dose: 0, 0.001, 0.0045, 0.02% IN DIET FOR 24 MO (STUDY DURATION: 24 MO)): inactive; negative | carcinogen call (Species: RAT, Strain/Sex: F344/MALE, Route: ORAL, Dose: 0, 0.001, 0.0045, 0.02% IN DIET FOR 24 MO (STUDY DURATION: 24 MO), Dose: 0, 0.001, 0.0045, 0.02% IN DIET FOR 24 MO (STUDY DURATION: 24 MO)): inactive; negative

Nc1ccc(O)c(N)c1
carcinogen call (Species: MOUSE, Strain/Sex: B6C3F1/FEMALE, Route: GAVAGE, Dose: 0, 19, 38 MG/KG IN CORN OIL 5 D/WK FOR 104 WK (STUDY DURATION: 2 YR), Dose: 0, 19, 38 MG/KG IN CORN OIL 5 D/WK FOR 104 WK (STUDY DURATION: 2 YR)): inactive; negative | carcinogen call (Species: RAT, Strain/Sex: F344/FEMALE, Route: GAVAGE, Dose: 0, 12.5, 25 MG/KG IN CORN OIL 5 D/WK FOR 104 WK (STUDY DURATION: 2 YR), Dose: 0, 12.5, 25 MG/KG IN CORN OIL 5 D/WK FOR 104 WK (STUDY DURATION: 2 YR)): inactive; negative | carcinogen call (Species: RAT, Strain/Sex: F344/MALE, Route: GAVAGE, Dose: 0, 12.5, 25 MG/KG IN CORN OIL 5 D/WK FOR 104 WK (STUDY DURATION: 2 YR)): inactive; negative

C/C=C/c1cc(OC)c(OC)cc1OC
carcinogen call (Species: MOUSE, Strain/Sex: B6C3F1/MALE, Route: INTRAPERITONEAL, Dose: 0, 0.25, 0.5 UMOL/G BW ONCE (STUDY DURATION: 10-11 MONTHS), Dose: 0, 0.25, 0.5 UMOL/G BW ONCE (STUDY DURATION: 10-11 MONTHS), Tumor Site: Type of Lesion: LIVER: HEPATOMA): active; positive | carcinogen call (Species: MOUSE, Strain/Sex: CD-1/FEMALE, Route: DERMAL, Dose: 0, 5 UMOL 1X/WK FOR 3 WK BEGINNING 24 HR POST FIRST TPA DOSE (2.5 UG IN 0.1 ML ACETONE), FOLLOWED BY 2.5 UG TPA IN 0.1 M): inactive; negative
